According to US20210371461A1, “Novel chemiluminescent substrates for Factor Xa” (Enzyre B.V., priority 2018, published 2021):
Where a SMILES comes first, the peptide text is derived from it. The star is where a group is joined. X1 = O=C(O)[C@H]1CSC(c2nc3ccc(N*)cc3s2)=N1; Decanoyl(3,6,9-trioxa) = COCCOCCOCC(=O)*

Legend:
Format in all cases: biochemical
[1] = molecular target: tissue-type plasminogen activator (tPA) (Homo sapiens, UniProt P00750); assay: Cross reactivity assay, tPA; conditions: 193 IU/mL tPA
Procedure: (§1) To determine cross-reactivity an assay was performed using a range of coagulation enzymes at representative concentrations in human plasma. […] For tissue-type plasminogen activator (tPA) this is the conventional concentration for facilitation of fibrinolysis. A concentration of 80 nm FXa yielded a signal of 1.000.000 RLU.

FXa [2] = molecular target: T1, FXa (Homo sapiens, UniProt P00742); assay: Michaelis-Menten kinetics of substrate with FXa (luciferase luminescence); conditions: FXa concentration 1.6 nM
T1 construct: purchased Coachrom
Procedure: Michaelis-Menten kinetics were determined for the enzyme FXa and its substrate MePEG2-IEGR (the TFA salt was used in these examples). The following composition was prepared in a microvial on ice:
160 μL Tris buffered saline (TBS) 50 mM Tris-HCI, 150 mM NaCI (pH 7.4)
4 μL ATP (final concentration 333 μM)
4 μL MgC2 (final concentration 8.3 mM)
12 μL Luciferase (final concentration 0.9 mg/ml)
Substrate compositions 2a-g:
Microvials were prepared with 30 μL substrate concentrations leading to final concentrations of 2000, 1333, 1000, 666, 333, 167 and 66 μM.
FXa (Coachrom, 16 nM) composition was prepared in a microvial on ice
Subsequently, the following compositions were added together in a white 384-well plate:
Subsequently the well plate was placed in a 37 ° C. thermostated Flexstation 3 (Molecular Devices). Luminescence emission wavelength was with an integration time of 1500 ms, measured for 1s every 30 s during 30 min.

FXa [3] = molecular target: T1, FXa; assay: Cross reactivity assay, FXa; conditions: compared with thrombin, plasmin, tPA, FXlla
Procedure: as §1

plasmin = plasmin (Homo sapiens, UniProt P00747); assay: Cross reactivity assay, plasmin; conditions: 8 nM plasmin
Procedure: as §1

thrombin = molecular target: T2, thrombin (Homo sapiens, UniProt P00734); assay: Cross reactivity assay, thrombin; conditions: 52 nM thrombin
T2 construct: FXa acts by cleaving prothrombin, yielding active thrombin
Procedure: as §1

FXlla = molecular target: T3, FXlla (Homo sapiens, UniProt P00748); assay: Cross reactivity assay, FXIIa; conditions: 145 nM FXlla
T3 construct: initiated by addition of active coagulation factors such as FXlla, FXla, or FIXa
T3 sequence (P00748 373-615 limits assumed): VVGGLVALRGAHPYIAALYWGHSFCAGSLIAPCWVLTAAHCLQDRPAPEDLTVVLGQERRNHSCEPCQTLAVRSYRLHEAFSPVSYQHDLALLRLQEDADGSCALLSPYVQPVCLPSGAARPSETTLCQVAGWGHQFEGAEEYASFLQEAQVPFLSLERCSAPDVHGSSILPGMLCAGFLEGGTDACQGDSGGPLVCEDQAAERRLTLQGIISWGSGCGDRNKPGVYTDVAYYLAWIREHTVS
Procedure: as §1

T1 sequence (P00742 235-488 limits assumed): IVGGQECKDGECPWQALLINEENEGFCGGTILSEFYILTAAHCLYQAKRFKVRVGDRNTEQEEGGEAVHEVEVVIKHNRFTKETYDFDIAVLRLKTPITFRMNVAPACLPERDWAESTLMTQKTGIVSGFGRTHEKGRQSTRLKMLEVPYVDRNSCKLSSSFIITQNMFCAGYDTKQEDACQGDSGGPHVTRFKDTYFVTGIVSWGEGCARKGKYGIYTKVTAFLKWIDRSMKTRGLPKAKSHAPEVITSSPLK
T1 sequence (P00742 41-179 partner limits assumed): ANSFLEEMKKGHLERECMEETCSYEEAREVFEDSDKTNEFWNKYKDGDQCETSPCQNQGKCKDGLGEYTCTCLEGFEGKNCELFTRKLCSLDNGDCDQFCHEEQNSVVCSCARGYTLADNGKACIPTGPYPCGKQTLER
Chain of tissue-type plasminogen activator (tPA) (P00750 36-562): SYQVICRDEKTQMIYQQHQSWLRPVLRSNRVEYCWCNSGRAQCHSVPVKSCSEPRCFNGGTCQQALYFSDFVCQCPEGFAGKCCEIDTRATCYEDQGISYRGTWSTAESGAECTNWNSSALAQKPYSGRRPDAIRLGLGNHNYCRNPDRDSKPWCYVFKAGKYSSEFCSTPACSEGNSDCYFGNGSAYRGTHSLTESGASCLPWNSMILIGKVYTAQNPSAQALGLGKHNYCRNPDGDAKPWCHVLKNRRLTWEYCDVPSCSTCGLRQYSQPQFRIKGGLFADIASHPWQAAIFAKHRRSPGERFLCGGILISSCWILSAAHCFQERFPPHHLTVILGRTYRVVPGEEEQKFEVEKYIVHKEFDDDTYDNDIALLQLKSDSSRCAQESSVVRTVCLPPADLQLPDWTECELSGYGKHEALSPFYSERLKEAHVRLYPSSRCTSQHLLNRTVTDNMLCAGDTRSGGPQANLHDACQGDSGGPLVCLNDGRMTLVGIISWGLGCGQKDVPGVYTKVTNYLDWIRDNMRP
Chain of plasmin (P00747 581-810 limits assumed): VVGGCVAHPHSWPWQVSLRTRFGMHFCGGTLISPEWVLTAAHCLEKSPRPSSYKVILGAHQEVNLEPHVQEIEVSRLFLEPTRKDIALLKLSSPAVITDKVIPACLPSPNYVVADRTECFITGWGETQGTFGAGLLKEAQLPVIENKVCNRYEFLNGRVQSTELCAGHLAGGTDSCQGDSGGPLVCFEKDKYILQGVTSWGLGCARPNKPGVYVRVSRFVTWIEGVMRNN
Chain of plasmin (P00747 97-580 partner limits assumed): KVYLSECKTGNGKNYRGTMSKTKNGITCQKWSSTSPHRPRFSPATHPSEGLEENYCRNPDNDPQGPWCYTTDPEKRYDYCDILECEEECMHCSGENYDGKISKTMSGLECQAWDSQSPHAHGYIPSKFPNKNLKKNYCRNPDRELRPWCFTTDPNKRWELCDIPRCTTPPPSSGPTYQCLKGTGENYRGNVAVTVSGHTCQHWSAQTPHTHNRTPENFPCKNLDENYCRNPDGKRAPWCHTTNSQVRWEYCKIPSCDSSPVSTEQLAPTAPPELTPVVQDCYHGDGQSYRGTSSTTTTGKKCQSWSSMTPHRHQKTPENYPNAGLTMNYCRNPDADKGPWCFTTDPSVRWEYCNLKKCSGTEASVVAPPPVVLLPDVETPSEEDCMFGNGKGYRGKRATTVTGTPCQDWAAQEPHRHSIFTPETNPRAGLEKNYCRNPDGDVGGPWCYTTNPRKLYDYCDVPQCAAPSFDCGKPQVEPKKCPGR

## CC[C@H](C)[C@H](NC(=O)COCCOCCOC)C(=O)N[C@@H](CCC(=O)O)C(=O)NCC(=O)N[C@@H](CCCNC(=N)N)C(=O)Nc1ccc2nc(C3=N[C@@H](C(=O)O)CS3)sc2c1 [MePEG2-IEGR] ({Decanoyl(3,6,9-trioxa)}-IEGR-X1)
[1]
  luminescent signal: ~6.000 RLU
FXa [2]
  Kcat=Vmax/[FXa]: 1.05e+14 s⁻¹
FXa [2]; 37 °C
  Km: 619 µM
FXa [2]; 37 °C, luciferase/ATP/Mg readout
  Vmax: 468000 RLU
FXa [3]
  cross-reactivity with serine proteases other than FXa: minimal cross-reactivity
plasmin
  luminescent signal: ~8.000 RLU
thrombin
  luminescent signal: ~30.000 RLU
FXlla
  luminescent signal: ~500 RLU
